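Assay format: 96-well plates, 48-hour exposure. TGI denotes the concentration required for complete inhibition of growth.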
Key:
Experiment in all cases: inhibition of tumour cell growth, NCI panel, 48 h
786-0 renal = system: 786-0 renal
A549 NSCLC = system: A549 NSCLC
ACHN renal = system: ACHN renal
CAKI-1 renal = system: CAKI-1 renal
CCRF-CEM leukemia = system: CCRF-CEM leukemia
COLO 205 colon = system: COLO 205 colon
DU-145 prostate = system: DU-145 prostate
EKVX NSCLC = system: EKVX NSCLC
HCT-116 colon = system: HCT-116 colon
HCT-15 colon = system: HCT-15 colon
HL-60(TB) leukemia = system: HL-60(TB) leukemia
HOP-62 NSCLC = system: HOP-62 NSCLC
HOP-92 NSCLC = system: HOP-92 NSCLC
HS 578T breast = system: HS 578T breast
HT29 colon = system: HT29 colon
IGROV1 ovarian = system: IGROV1 ovarian
K-562 leukemia = system: K-562 leukemia
KM12 colon = system: KM12 colon
LOX IMVI melanoma = system: LOX IMVI melanoma
M14 melanoma = system: M14 melanoma
MALME-3M melanoma = system: MALME-3M melanoma
MCF7 breast = system: MCF7 breast
MDA-MB-231 breast = system: MDA-MB-231 breast
MDA-MB-435 = system: MDA-MB-435
MDA-N = system: MDA-N
MOLT-4 leukemia = system: MOLT-4 leukemia
NCI-H226 lung = system: NCI-H226 lung
NCI-H23 lung = system: NCI-H23 lung
NCI-H460 lung = system: NCI-H460 lung
NCI-H522 lung = system: NCI-H522 lung
NCI/ADR-RES ovarian = system: NCI/ADR-RES ovarian
OVCAR-3 ovarian = system: OVCAR-3 ovarian
OVCAR-4 ovarian = system: OVCAR-4 ovarian
OVCAR-5 ovarian = system: OVCAR-5 ovarian
OVCAR-8 ovarian = system: OVCAR-8 ovarian
PC-3 prostate = system: PC-3 prostate
RPMI-8226 leukemia = system: RPMI-8226 leukemia
RXF 393 renal = system: RXF 393 renal
SF-268 CNS = system: SF-268 CNS
SF-295 CNS = system: SF-295 CNS
SF-539 CNS = system: SF-539 CNS
SK-MEL-2 melanoma = system: SK-MEL-2 melanoma
SK-MEL-28 melanoma = system: SK-MEL-28 melanoma
SK-MEL-5 melanoma = system: SK-MEL-5 melanoma
SN12C renal = system: SN12C renal
SNB-19 CNS = system: SNB-19 CNS
SNB-75 CNS = system: SNB-75 CNS
SR leukemia = system: SR leukemia
SW-620 colon = system: SW-620 colon
T-47D breast = system: T-47D breast
TK-10 renal = system: TK-10 renal
U251 CNS = system: U251 CNS
UACC-257 melanoma = system: UACC-257 melanoma
UACC-62 melanoma = system: UACC-62 melanoma
UO-31 renal = system: UO-31 renal
BT-549 breast = system: BT-549 breast

CN(Cc1cnc2nc(N)nc(N)c2n1)c1ccc(C(=O)NC(CCC(=O)NC(P(=O)(O)O)P(=O)(O)O)C(=O)O)cc1 (stereo not drawn)
TGI (786-0 renal): > 100 µM | TGI (A549 NSCLC): > 100 µM | TGI (ACHN renal): > 100 µM | TGI (CAKI-1 renal): 29.8 µM | TGI (CCRF-CEM leukemia): > 100 µM | TGI (COLO 205 colon): > 100 µM | TGI (DU-145 prostate): > 100 µM | TGI (EKVX NSCLC): > 100 µM | TGI (HCT-116 colon): > 100 µM | TGI (HCT-15 colon): > 100 µM | TGI (HL-60(TB) leukemia): > 100 µM | TGI (HOP-62 NSCLC): > 100 µM | TGI (HOP-92 NSCLC): > 100 µM | TGI (HS 578T breast): > 100 µM | TGI (HT29 colon): > 100 µM | TGI (IGROV1 ovarian): > 100 µM | TGI (K-562 leukemia): > 100 µM | TGI (KM12 colon): > 100 µM | TGI (LOX IMVI melanoma): > 100 µM | TGI (M14 melanoma): > 100 µM | TGI (MALME-3M melanoma): > 100 µM | TGI (MCF7 breast): > 100 µM | TGI (MDA-MB-231 breast): > 100 µM | TGI (MDA-MB-435): > 100 µM | TGI (MDA-N): > 100 µM | TGI (MOLT-4 leukemia): > 100 µM | TGI (NCI-H226 lung): > 100 µM | TGI (NCI-H23 lung): > 100 µM | TGI (NCI-H460 lung): > 100 µM | TGI (NCI-H522 lung): > 100 µM | TGI (NCI/ADR-RES ovarian): > 100 µM | TGI (OVCAR-3 ovarian): > 100 µM | TGI (OVCAR-4 ovarian): > 100 µM | TGI (OVCAR-5 ovarian): > 100 µM | TGI (OVCAR-8 ovarian): > 100 µM | TGI (PC-3 prostate): > 100 µM | TGI (RPMI-8226 leukemia): > 100 µM | TGI (RXF 393 renal): > 100 µM | TGI (SF-268 CNS): > 100 µM | TGI (SF-295 CNS): > 100 µM | TGI (SF-539 CNS): > 100 µM | TGI (SK-MEL-2 melanoma): > 100 µM | TGI (SK-MEL-28 melanoma): > 100 µM | TGI (SK-MEL-5 melanoma): > 100 µM | TGI (SN12C renal): > 100 µM | TGI (SNB-19 CNS): 27.6 µM | TGI (SNB-75 CNS): > 100 µM | TGI (SR leukemia): > 100 µM | TGI (SW-620 colon): 28.3 µM | TGI (T-47D breast): > 100 µM | TGI (TK-10 renal): > 100 µM | TGI (U251 CNS): > 100 µM | TGI (UACC-257 melanoma): > 100 µM | TGI (UACC-62 melanoma): > 100 µM | TGI (UO-31 renal): > 100 µM

COc1cc(/C=N/Nc2nnc3c4ccccc4c4ncccc4c3n2)cc(OC)c1OC
TGI (786-0 renal): > 10 µM | TGI (A549 NSCLC): > 10 µM | TGI (ACHN renal): > 10 µM | TGI (BT-549 breast): > 10 µM | TGI (CCRF-CEM leukemia): > 10 µM | TGI (DU-145 prostate): > 10 µM | TGI (EKVX NSCLC): > 10 µM | TGI (HL-60(TB) leukemia): > 10 µM | TGI (HS 578T breast): > 10 µM | TGI (HT29 colon): 5.4 µM | TGI (IGROV1 ovarian): > 10 µM | TGI (K-562 leukemia): > 10 µM | TGI (KM12 colon): > 10 µM | TGI (M14 melanoma): > 10 µM | TGI (MDA-MB-435): > 10 µM | TGI (MDA-N): 8.09 µM | TGI (MOLT-4 leukemia): > 10 µM | TGI (NCI-H226 lung): 9.12 µM | TGI (NCI-H23 lung): 8.25 µM | TGI (NCI-H460 lung): 5.68 µM | TGI (NCI-H522 lung): 5.75 µM | TGI (OVCAR-3 ovarian): > 10 µM | TGI (OVCAR-4 ovarian): > 10 µM | TGI (OVCAR-5 ovarian): > 10 µM | TGI (OVCAR-8 ovarian): 6.58 µM | TGI (RXF 393 renal): > 10 µM | TGI (SF-268 CNS): > 10 µM | TGI (SF-295 CNS): > 10 µM | TGI (SF-539 CNS): > 10 µM | TGI (SK-MEL-5 melanoma): > 10 µM | TGI (SNB-19 CNS): > 10 µM | TGI (SNB-75 CNS): > 10 µM | TGI (SR leukemia): > 10 µM | TGI (T-47D breast): 4.11 µM | TGI (TK-10 renal): > 10 µM | TGI (U251 CNS): > 10 µM | TGI (UACC-257 melanoma): 8.23 µM | TGI (UO-31 renal): > 10 µM
